Values quoted from earlier work in paper PMC6848746 (Psychopharmacology, 2019).
Where two headings read alike, the source gives them in different places.

What was measured:
rats [1] = details: MMAI discrimination; ref Marona-Lewicka and Nichols 1994, 1998; cited from earlier work
5-HT2B receptor = details: read-out: 5-HT2B receptor Ki, vs. [3H]LSD, cited from earlier work
rats [2] = details: ref Bilsky et al. 1990, Marona-Lewicka et al. 1996; cited from earlier work
hDAT [3] = details: cited from earlier work
hDAT [4] = details: read-out: [125I]RTI-55 binding to hDAT Ki; ref Eshleman et al. 2017; cited from earlier work

Q: With `C[C@H](N)Cc1ccccc1` [(+)-amphetamine, reference compound] as the compound, how does the “substitution for MMAI” value (rats [1]) read?
A: Its value is “did not substitute”.

Q: Which Ki (5-HT2B receptor; ref Iversen et al. (2013)) does the source give for `NC1Cc2ccc(I)cc2C1` (stereo not drawn) [5-IAI, 5-iodo-2-aminoindan] here?
A: Its Ki is 70 nM.

Q: For `CNC(C)Cc1ccc2c(c1)OCO2` (stereo not drawn) [MDMA, 3,4-methylenedioxymethamphetamine, reference compound], which Ki (5-HT2B receptor; ref Setola et al. 2003) is on record?
A: The Ki was 500 nM.

Q: What about the “substitution for MMAI” value (rats [1]) of the same compound?
A: The value was “fully substituted”.

Q: What about the place conditioning effect (rats [2]) of the same compound?
A: Its place conditioning effect is “conditioned place preference”.

Q: With `COC(=O)[C@H]1[C@@H](OC(=O)c2ccccc2)C[C@@H]2CC[C@H]1N2C` [cocaine, reference compound] as the compound, how does the “substitution for MMAI” value (rats [1]) read?
A: Its value is “did not substitute”.

Q: Which IC50 (hDAT [3]; read-out: [3H]DA uptake inhibition IC50, ref Eshleman et al. 2017) does the source give for `CN[C@@H](C)Cc1ccccc1` [methamphetamine] here?
A: Its IC50 is 66.7 nM.

Q: And the “fold higher potency for [3H]DA uptake inhibition than [125I]RTI-55 displacement” value (hDAT [3]; ref Eshleman et al. 2017)?
A: Its value is “about 70 fold”.

Q: And the Ki (hDAT [4])?
A: The Ki was 4580 nM.

Q: Which Ki (5-HT2B receptor; ref Setola et al. 2003) does the source give for `CC(N)Cc1ccc2c(c1)OCO2` (stereo not drawn) [MDA] here?
A: Its Ki is 100 nM.

Q: For `CCN[C@@H](C)Cc1cccc(C(F)(F)F)c1` [(+)-fenfluramine, reference compound], which “substitution for MMAI” value (rats [1]) is on record?
A: Its value is “fully substituted”.

Q: With `CC[C@@H](Cc1ccc2c(c1)OCO2)NC` [S-(+)-MBDB, S-(+)-N-methyl-1-(1,3-benzodioxol-5-yl)-2-butanamine, reference compound] as the compound, how does the “substitution for MMAI” value (rats [1]) read?
A: The value was “fully substituted”.
